# Where a SMILES comes first, the peptide text is derived from it. Bridges are numbered along the chain shown (N, C = ends). [ ]: non-standard residue; d: D form. 1Nal = N[C@@H](Cc1cccc2ccccc12)C(=O)O; Nle = CCCC[C@H](N)C(=O)O
# Assays:
# MC4-R [1] = biological target: T1, MC4-R (Homo sapiens, UniProt P32245); test: Competitive inhibition binding assay using [I125]-NDP-α-MSH, hMC4-R; conditions: radioligand [I125]-NDP-α-MSH, HEK-293 membranes; read-out: Ki (NDP-α-MSH) MC4-R
# T1 construct: expressed in transfected cells; host or cells: HEK-293
# Procedure: (§1) The assay tube also contained a chosen concentration of the test peptide of this invention, typically a 1 μM concentration, for determining its efficacy in inhibiting the binding of [I^125]NDP-α-MSH to the receptor.
# (§2) The assay mixture was incubated for 60 minutes at 37° C., then filtered and the membranes washed three times with ice cold phosphate buffered saline. The filter was dried and counted in a gamma counter for remaining radioactivity bound to the membranes. 100% specific binding was defined as the difference in radioactivity (cpm) bound to cell membranes in the absence and presence of 1 μM NDP-α-MSH. […] Each assay was conducted in triplicate. The Ki (nM) of certain peptides of the invention were determined using similar assay protocols and testing peptides over a wider dose range.
# MC4-R [2] = biological target: T1, MC4-R; test: Competitive inhibition Ki (AgRP), MC4-R; assay type: binding; conditions: AgRP as competing ligand
# hMC5-R = biological target: T2, hMC5-R (Homo sapiens, UniProt P33032); test: Competitive inhibition binding assay using [I125]-NDP-α-MSH, hMC5-R; conditions: radioligand [I125]-NDP-α-MSH, HEK-293 membranes; read-out: Ki (NDP-α-MSH) MC5-R
# T2 construct: expressed in transfected cells; host or cells: HEK-293
# Procedure: as §1, §2
# MC3-R [3] = biological target: T3, MC3-R (Homo sapiens, UniProt P41968); test: Competitive inhibition binding assay using [I125]-NDP-α-MSH, hMC3-R; conditions: radioligand [I125]-NDP-α-MSH, HEK-293 membranes; read-out: Ki (NDP-α-MSH) MC3-R
# T3 construct: expressed in transfected cells; host or cells: HEK-293
# Procedure: as §1, §2
# MC3-R [4] = biological target: T3, MC3-R; test: Competitive inhibition Ki (AgRP), MC3-R; assay type: binding; conditions: AgRP as competing ligand
# Procedure: as §2
# hMC4-R (HEK-293 cells) = biological target: T4, hMC4-R (HEK-293 cells) (Homo sapiens, UniProt P32245); test: cAMP functional assay for agonist/antagonist status, MC4-R; assay type: cell-based; conditions: for EC50: cAMP accumulation; for agonist/antagonist status as to MC4-R: cAMP assay; for efficacy relative to NDP-α-MSH, MC4-R: cAMP response ratio to NDP-α-MSH
# T4 construct: expressed in transfected cells; host or cells: HEK-293
# Procedure: (§3) Functional evaluation of peptides at melanocortin receptors was performed by measuring the accumulation of intracellular cAMP in HEK-293 cells expressing hMC3-R, hMC4-R or hMC5-R, and in B-16 mouse melanoma cells expressing MC1-R. Cells suspended in Earle's Balanced Salt Solution containing 10 mM HEPES (pH 7.5), 5 mM MgCl2, 1 mM glutamine, 0.5% albumin and 0.3 mM 3-isobutyl-1-methyl-xanthine, a phosphodiesterase inhibitor, were plated in 96 well plates at a density of 0.5×10^5 cells per well. Cells were incubated with the test peptides in the presence or absence of NDP-α-MSH for 1 hour at 37° C. cAMP levels in the cell lysates were measured using an EIA kit (Amersham). Data analysis and EC50 values were determined using nonlinear regression analysis with Prism Graph-Pad software.
# (§4) The agonist/antagonist status with respect to MC1-R, MC4-R and MC5-R of certain peptides of the invention was determined. Antagonistic activity was determined by measuring the inhibition of α-MSH-induced or NDP-α-MSH-induced cAMP levels following exposure to the peptides as in the preceding descriptions.
# Evaluation of the molecules to elicit a functional response in HEK-293 cells expressing hMC4-R for agonistic activity was done by measuring the accumulation of intracellular cAMP following treatment. Confluent HEK-293 cells over-expressing MC4-R receptors were detached by enzyme free cell suspension buffer. Cells were suspended in Earle's Balanced Salt Solution containing 10 mM HEPES (pH 7.5), 1 mM MgCl2, 1 mM glutamine, 0.5% albumin and 0.3 mM 3-isobutyl-1-methyl-[…]. The cells were plated in a 96 well plate at a density of 0.5×10^5 cells per well and pre-incubated for 60 minutes. The cells were then challenged with the test peptides dissolved in dimethylsulfoxide (DMSO) at a concentration range of 0.05-5000 nM in a total assay volume of 200 μL for 1 hour at 37° C. The concentration of DMSO was held at 1% in the assay mixture. NDP-α-MSH was used as the reference agonist. At the end of the incubation period the cells were disrupted by the addition of 50 μL lysis buffer from the cAMP EIA kit (Amersham). Complete rupture of the cells was ensured by pipetting the cells. cAMP levels in the cell lysates were measured after appropriate dilution using the EIA kit (Amersham) method. Data analysis and EC50 values were determined by using nonlinear regression analysis with the Prism Graph-Pad software.
# hMC3-R (HEK-293 cells) = biological target: T5, hMC3-R (HEK-293 cells) (Homo sapiens, UniProt P41968); test: cAMP functional assay for agonist/antagonist status, MC3-R; assay type: cell-based; conditions: for EC50: cAMP accumulation; for agonist/antagonist status as to MC3-R: cAMP assay; for efficacy relative to NDP-α-MSH, MC3-R: cAMP response ratio to NDP-α-MSH
# T5 construct: expressed in transfected cells; host or cells: HEK-293
# Procedure: as §3, §4
# male Sprague-Dawley rats = test: Penile erection induction in male rats; assay type: in vivo, rat
# Procedure: The ability of peptides to induce penile erection (PE) in male rats was evaluated with selected peptides. Male Sprague-Dawley rats weighing 200-250 g were kept on a 12 hour on/off light cycle with food and water ad libitum. All behavioral studies were performed between 10 a.m. and 5 p.m. Groups of 4-8 rats were administered peptides at a variety of doses via an intravenous (IV) route, and may alternatively be administered peptide by an intracerebroventricular (ICV) route. Immediately after treatment, rats were placed into individual polystyrene cages (27 cm long, 16 cm wide, and 25 cm high) for behavioral observation. […] For rats administered peptide by an ICV routes, rats are observed for two hours.
# Selected peptides were tested as in Example 5. Peptide was administered by IV routes, and used at dose levels ranging from 1 μg/kg to 1000 μg/kg.
# [5] = biological target: T6, MC1-R (B-16 mouse melanoma cells) (Mus musculus, UniProt Q01727); test: cAMP functional assay for agonist/antagonist status, MC1-R; assay type: cell-based; conditions: for EC50: cAMP accumulation; for agonist/antagonist status as to MC1-R: cAMP assay; for efficacy relative to NDP-α-MSH, MC1-R: cAMP response ratio to NDP-α-MSH
# T6 construct: B-16 mouse melanoma cells (containing MC1-R); endogenous in cells; host or cells: B-16 mouse melanoma cells
# Procedure: Data analysis and EC50 values were determined using nonlinear regression analysis with Prism Graph-Pad software.
# The agonist/antagonist status with respect to MC1-R, MC4-R and MC5-R of certain peptides of the invention was determined.
# [6] = 1000 μg/kg IV, groups of 6 rats, one hour observation
# [7] = peak dose 300 μg/kg IV, groups of 6 rats
# T5 sequence (P41968 whole entry): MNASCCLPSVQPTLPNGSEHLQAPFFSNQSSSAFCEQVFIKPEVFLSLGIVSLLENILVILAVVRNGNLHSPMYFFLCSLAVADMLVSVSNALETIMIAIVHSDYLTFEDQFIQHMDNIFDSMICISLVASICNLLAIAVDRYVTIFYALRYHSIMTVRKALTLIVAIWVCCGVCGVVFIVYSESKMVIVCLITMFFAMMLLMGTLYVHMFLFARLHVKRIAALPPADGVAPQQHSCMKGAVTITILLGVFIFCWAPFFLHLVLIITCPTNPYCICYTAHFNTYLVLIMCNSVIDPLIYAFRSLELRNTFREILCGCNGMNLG
# T3 sequence (P41968 whole entry): as above
# T6 sequence (Q01727 whole entry): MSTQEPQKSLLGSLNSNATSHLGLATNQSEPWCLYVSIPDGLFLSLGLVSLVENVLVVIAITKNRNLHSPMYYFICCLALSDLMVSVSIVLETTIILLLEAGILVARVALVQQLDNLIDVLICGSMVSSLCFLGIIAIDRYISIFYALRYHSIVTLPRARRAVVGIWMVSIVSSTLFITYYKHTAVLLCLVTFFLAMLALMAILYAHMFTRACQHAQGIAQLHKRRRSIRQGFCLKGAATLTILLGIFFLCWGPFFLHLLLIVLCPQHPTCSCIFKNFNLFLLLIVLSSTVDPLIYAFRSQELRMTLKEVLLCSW
# T1 sequence (P32245 whole entry): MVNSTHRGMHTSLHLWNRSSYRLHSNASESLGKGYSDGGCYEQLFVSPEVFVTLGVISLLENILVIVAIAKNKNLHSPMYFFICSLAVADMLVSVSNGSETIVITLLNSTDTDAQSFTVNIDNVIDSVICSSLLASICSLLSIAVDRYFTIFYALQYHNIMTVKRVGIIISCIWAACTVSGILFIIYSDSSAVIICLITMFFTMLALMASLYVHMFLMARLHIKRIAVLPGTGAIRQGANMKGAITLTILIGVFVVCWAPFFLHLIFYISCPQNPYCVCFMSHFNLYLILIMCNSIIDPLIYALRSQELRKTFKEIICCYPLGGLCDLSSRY
# T4 sequence (P32245 whole entry): as above
# T2 sequence (P33032 whole entry): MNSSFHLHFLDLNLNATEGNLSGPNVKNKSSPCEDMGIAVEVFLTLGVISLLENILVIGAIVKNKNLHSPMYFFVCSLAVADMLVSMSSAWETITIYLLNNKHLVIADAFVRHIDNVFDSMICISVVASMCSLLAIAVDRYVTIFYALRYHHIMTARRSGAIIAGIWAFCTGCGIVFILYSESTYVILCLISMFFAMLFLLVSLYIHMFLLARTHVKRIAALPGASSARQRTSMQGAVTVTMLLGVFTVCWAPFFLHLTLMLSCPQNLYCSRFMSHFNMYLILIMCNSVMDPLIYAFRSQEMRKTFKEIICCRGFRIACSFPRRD
Structure (SMILES),Ki (MC4-R [1]),Ki (MC4-R [2]),Ki (hMC5-R),Ki (MC3-R [3]),Ki (MC3-R [4]),EC50 (hMC4-R (HEK-293 cells)),agonist/antagonist status as to MC4-R (hMC4-R (HEK-293 cells)),EC50 (hMC3-R (HEK-293 cells)),agonist/antagonist status as to MC3-R (hMC3-R (HEK-293 cells)),rats exhibiting at least one PE (male Sprague-Dawley rats; [6]),"efficacy relative to NDP-α-MSH, MC4-R (hMC4-R (HEK-293 cells))",EC50 [5],agonist/antagonist status as to MC1-R [5],"efficacy relative to NDP-α-MSH, MC1-R [5]","efficacy relative to NDP-α-MSH, MC3-R (hMC3-R (HEK-293 cells))",PE effect at 300 μg/kg compared with 1000 μg/kg (male Sprague-Dawley rats; peak dose 300 μg/kg IV),mean PEs per rat (male Sprague-Dawley rats; [7]),rats exhibiting at least one PE (male Sprague-Dawley rats; [7])
"CCCC[C@H](NC(C)=O)C(=O)N[C@H]1CC(=O)NCCCC[C@@H](C(=O)NCC)NC(=O)[C@H](Cc2c[nH]c3ccccc23)NC(=O)[C@H](CCCNC(=N)N)NC(=O)[C@@H](Cc2ccccc2)NC(=O)[C@H](Cc2c[nH]cn2)NC1=O [Example 7, Ac-Nle-cyclo(-Asp-His-D-Phe-Arg-Trp-Lys)-NH—CH2—CH3]",0.34 nM,0.15 nM,5 nM,11 nM,9 nM,0.6 nM,agonist (response ratio compared to NDP-α-MSH of 0.7 and above were classified as full agonists),3 nM,agonist (response ratio compared to NDP-α-MSH of 0.7 and above were classified as full agonists),100%,–,–,–,–,–,–,–,–
"CCCC[C@H](NC(C)=O)C(=O)N[C@H]1CC(=O)NCCCC[C@@H](C(=O)N(C)C)NC(=O)[C@H](Cc2c[nH]c3ccccc23)NC(=O)[C@H](CCCNC(=N)N)NC(=O)[C@@H](Cc2ccccc2)NC(=O)[C@H](Cc2c[nH]cn2)NC1=O [Example 8, Ac-Nle-cyclo(-Asp-His-D-Phe-Arg-Trp-Lys)-N(CH3)2]",0.27 nM,0.5 nM,7 nM,8 nM,–,0.2 nM,agonist (response ratio compared to NDP-α-MSH of 0.7 and above were classified as full agonists),17 nM,agonist (response ratio compared to NDP-α-MSH of 0.7 and above were classified as full agonists),100%,–,–,–,–,–,–,–,–
"CCCC[C@H](NC(C)=O)C(=O)N[C@H]1CC(=O)NCCCC[C@@H](C(=O)NCC)NC(=O)[C@H](Cc2cccc3ccccc23)NC(=O)[C@H](CCCNC(=N)N)NC(=O)[C@@H](Cc2ccccc2)NC(=O)[C@H](Cc2c[nH]cn2)NC1=O [Example 9, Ac-Nle-cyclo(-Asp-His-D-Phe-Arg-Nal 1-Lys)-NH—CH2—CH3]",–,7 nM,–,–,–,–,partial agonist (Peptides with a ratio from 0.1 to 0.7 were classified as partial agonists),208 nM,agonist (response ratio compared to NDP-α-MSH of 0.7 and above were classified as full agonists),100%,0.6,8 nM,partial agonist (Peptides with a ratio from 0.1 to 0.7 were classified as partial agonists),0.6,1.0,–,–,–
"CCCC[C@H](NC(C)=O)C(=O)N[C@H]1CC(=O)NCCCC[C@@H](C(=O)N(C)C)NC(=O)[C@H](Cc2cccc3ccccc23)NC(=O)[C@H](CCCNC(=N)N)NC(=O)[C@@H](Cc2ccccc2)NC(=O)[C@H](Cc2c[nH]c3ccccc23)NC1=O [Example 10, Ac-Nle-cyclo(-Asp-Trp-D-Phe-Arg-Nal 1-Lys)-N(CH3)2] (Ac-[Nle]DW[dF]R[1Nal]K-NMe2; lactam 2-7 (inferred))",–,50 nM,–,–,> 1000 nM,–,agonist (response ratio compared to NDP-α-MSH of 0.7 and above were classified as full agonists),–,inactive,–,0.8,2300 nM,agonist (response ratio compared to NDP-α-MSH of 0.7 and above were classified as full agonists),1.1,–,–,–,–
"CCCC[C@H](NC(C)=O)C(=O)N[C@H]1CC(=O)NCCCC[C@@H](C(=O)N(C)C)NC(=O)[C@H](Cc2cccc3ccccc23)NC(=O)[C@H](CCCNC(=N)N)NC(=O)[C@@H](Cc2ccccc2)NC(=O)[C@H](Cc2c[nH]cn2)NC1=O [Example 11, Ac-Nle-cyclo(-Asp-His-D-Phe-Arg-Nal 1-Lys)-N(CH3)2]",–,10 nM,–,–,> 1000 nM,–,agonist (response ratio compared to NDP-α-MSH of 0.7 and above were classified as full agonists),394 nM,agonist (response ratio compared to NDP-α-MSH of 0.7 and above were classified as full agonists),100%,0.7,15 nM,agonist (response ratio compared to NDP-α-MSH of 0.7 and above were classified as full agonists),0.8,1.1,the same,–,–
"CCNC(=O)[C@@H]1CCCCNC(=O)C[C@H](NC(C)=O)C(=O)N[C@@H](Cc2c[nH]cn2)C(=O)N[C@H](Cc2ccccc2)C(=O)N[C@@H](CCCNC(=N)N)C(=O)N[C@@H](Cc2c[nH]c3ccccc23)C(=O)N1 [Example 12, Ac-cyclo(-Asp-His-D-Phe-Arg-Trp-Lys)-NH—CH2—CH3]",–,11 nM,–,–,457 nM,–,partial agonist (Peptides with a ratio from 0.1 to 0.7 were classified as partial agonists),283 nM,agonist (response ratio compared to NDP-α-MSH of 0.7 and above were classified as full agonists),–,0.6,64 nM,partial agonist (Peptides with a ratio from 0.1 to 0.7 were classified as partial agonists),0.6,1.0,–,2.5,83%
